In ChEMBL document CHEMBL1201862, “PubChem BioAssay data set” (2004):
Calls of active or inactive are those of the source.

Tests used:
[1] = biological target: 5-hydroxytryptamine receptor 1A (Homo sapiens, UniProt P08908); assay type: functional
[2] = M. tuberculosis H37Rv growth inhibitors, H37Rv strain (AID 1626); assay type: functional
Leucine aminopeptidase = biological target: T1, Leucine aminopeptidase (Plasmodium falciparum 3D7, UniProt Q8IL11); assay: P. falciparum M17LAP inhibitors, primary screen, biochemical, fluorogenic H-Leu-NHMec substrate, 1536-well (AID 1619); assay type: functional
T1 sequence (Q8IL11 whole entry): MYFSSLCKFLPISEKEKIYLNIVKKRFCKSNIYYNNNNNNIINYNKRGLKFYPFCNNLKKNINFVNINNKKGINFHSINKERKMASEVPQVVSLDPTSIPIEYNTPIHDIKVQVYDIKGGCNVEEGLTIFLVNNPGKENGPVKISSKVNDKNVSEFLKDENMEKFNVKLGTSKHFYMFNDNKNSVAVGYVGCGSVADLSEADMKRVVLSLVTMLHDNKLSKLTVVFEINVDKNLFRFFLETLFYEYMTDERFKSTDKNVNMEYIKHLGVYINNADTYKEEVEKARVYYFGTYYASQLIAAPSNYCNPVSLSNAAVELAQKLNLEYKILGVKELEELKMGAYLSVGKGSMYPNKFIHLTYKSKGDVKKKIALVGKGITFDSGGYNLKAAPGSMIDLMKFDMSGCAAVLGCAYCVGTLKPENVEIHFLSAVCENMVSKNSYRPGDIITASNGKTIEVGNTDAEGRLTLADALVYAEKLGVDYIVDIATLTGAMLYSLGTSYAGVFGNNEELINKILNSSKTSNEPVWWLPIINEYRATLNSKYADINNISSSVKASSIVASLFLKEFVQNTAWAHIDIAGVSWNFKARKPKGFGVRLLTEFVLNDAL

Cytochrome P450 2C9 = Cytochrome P450 2C9 (Homo sapiens, UniProt P11712)
Cytochrome P450 2C9, sequence (P11712 whole entry): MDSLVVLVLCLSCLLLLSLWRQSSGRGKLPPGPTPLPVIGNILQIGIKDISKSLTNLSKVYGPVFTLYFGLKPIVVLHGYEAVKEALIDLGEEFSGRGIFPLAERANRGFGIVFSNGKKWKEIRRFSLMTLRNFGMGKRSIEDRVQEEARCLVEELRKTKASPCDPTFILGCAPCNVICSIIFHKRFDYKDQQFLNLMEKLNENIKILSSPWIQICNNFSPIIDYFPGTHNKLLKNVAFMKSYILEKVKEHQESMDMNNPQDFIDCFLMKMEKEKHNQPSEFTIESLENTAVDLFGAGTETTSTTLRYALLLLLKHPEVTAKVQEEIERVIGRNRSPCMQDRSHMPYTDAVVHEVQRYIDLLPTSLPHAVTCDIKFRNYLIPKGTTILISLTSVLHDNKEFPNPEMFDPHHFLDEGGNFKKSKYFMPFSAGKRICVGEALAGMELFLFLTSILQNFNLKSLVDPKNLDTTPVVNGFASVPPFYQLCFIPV

Procathepsin L = Procathepsin L (Homo sapiens, UniProt P07711); assay: cathepsin L inhibitors, dose response, counter-screen for M1/M17 aminopeptidase inhibitor project, biochemical, QFRET, 1536-well (AID 2214)
Procathepsin L, sequence (P07711 whole entry): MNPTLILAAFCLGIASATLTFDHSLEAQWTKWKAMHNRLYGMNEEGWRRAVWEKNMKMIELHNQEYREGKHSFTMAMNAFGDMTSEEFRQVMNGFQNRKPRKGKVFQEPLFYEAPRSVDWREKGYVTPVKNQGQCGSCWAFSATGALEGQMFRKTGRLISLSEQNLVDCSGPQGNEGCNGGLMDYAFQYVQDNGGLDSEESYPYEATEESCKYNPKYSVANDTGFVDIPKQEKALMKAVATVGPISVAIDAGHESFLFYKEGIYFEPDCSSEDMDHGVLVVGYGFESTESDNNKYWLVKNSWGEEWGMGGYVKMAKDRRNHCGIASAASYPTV

Aspartyl aminopeptidase = biological target: T2, Aspartyl aminopeptidase (Plasmodium falciparum 3D7, UniProt Q8I2J3); assay: Counterscreen for inhibitors of M1 and M17 aminopeptidases: QFRET-based biochemical high throughput dose response assay for inhibitors of the Plasmodium falciparum M18 Aspartyl Aminopeptidase (PFM18AAP). [Related PubChem assays: 1619 (Screening assay (M17LAP inhibitors).), 1445 (Screening assay (M1AAP inhibitors).)]
T2 sequence (Q8I2J3 whole entry): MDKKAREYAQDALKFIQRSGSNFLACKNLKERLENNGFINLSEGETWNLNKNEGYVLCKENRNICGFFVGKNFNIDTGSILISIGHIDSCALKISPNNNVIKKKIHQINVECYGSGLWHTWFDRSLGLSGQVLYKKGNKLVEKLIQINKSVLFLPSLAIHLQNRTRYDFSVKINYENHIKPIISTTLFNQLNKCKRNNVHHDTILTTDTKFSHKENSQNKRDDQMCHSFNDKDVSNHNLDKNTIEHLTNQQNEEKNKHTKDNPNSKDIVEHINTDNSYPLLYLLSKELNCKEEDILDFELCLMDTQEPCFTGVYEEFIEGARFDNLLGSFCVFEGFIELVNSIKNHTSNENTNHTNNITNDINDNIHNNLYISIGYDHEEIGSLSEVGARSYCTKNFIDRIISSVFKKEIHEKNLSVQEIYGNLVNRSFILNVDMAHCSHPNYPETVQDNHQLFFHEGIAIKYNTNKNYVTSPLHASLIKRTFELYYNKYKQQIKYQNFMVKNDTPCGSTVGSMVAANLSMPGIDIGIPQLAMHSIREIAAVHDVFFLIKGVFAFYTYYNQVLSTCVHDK

Cytochrome P450 2C19 = Cytochrome P450 2C19 (Homo sapiens, UniProt P33261); assay: Cytochrome panel assay with activity outcomes. Panel member name: p450-cyp2c19 Compounds with AC50 equal or less than 10 uM are considered active; assay type: functional; details: read-out: AC50
Cytochrome P450 2C19, sequence (P33261 whole entry): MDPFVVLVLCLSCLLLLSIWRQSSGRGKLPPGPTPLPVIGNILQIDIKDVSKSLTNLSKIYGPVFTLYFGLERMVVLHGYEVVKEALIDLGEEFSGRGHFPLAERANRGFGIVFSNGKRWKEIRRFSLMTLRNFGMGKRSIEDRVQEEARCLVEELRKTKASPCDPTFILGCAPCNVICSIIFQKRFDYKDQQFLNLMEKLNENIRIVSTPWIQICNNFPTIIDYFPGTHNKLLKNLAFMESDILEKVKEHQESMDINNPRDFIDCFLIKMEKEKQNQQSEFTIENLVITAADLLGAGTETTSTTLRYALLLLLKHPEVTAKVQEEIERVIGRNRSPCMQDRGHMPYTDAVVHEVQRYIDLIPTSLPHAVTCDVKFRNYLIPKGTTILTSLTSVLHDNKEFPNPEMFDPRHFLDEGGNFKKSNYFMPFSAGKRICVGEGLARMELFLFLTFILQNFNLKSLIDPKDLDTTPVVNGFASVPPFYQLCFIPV

[3] = biological target: T3, Zinc finger protein mex-5 (Caenorhabditis elegans, UniProt Q9XUB2); assay: MEX-5/TCR-2 RNA interaction inhibitors, dose response, biochemical, C. elegans, fluorescence polarization (AID 1960)
T3 sequence (Q9XUB2 whole entry): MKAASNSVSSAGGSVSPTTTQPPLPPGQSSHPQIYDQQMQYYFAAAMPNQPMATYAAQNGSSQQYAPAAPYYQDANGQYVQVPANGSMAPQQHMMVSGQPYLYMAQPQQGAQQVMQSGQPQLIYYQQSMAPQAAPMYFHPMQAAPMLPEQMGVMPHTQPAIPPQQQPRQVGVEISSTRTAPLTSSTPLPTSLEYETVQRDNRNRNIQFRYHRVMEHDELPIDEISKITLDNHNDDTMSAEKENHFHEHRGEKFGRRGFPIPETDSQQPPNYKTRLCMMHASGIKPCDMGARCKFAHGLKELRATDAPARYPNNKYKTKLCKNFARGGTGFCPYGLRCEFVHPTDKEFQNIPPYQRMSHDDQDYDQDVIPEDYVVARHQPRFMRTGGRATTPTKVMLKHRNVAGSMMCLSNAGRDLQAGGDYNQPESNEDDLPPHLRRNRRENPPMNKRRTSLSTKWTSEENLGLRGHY

Protein RecA = biological target: T4, Protein RecA (Mycobacterium tuberculosis, UniProt P9WHJ3); assay: Fluorescence Cell-Free Homogeneous Dose Retest to Identify Inhibitors of RecA-Intein Splicing Activity. [Related pubchem assays (depositor defined):AID2097, AID2223, AID489010, AID492950]; assay type: functional
T4 sequence (P9WHJ3 whole entry): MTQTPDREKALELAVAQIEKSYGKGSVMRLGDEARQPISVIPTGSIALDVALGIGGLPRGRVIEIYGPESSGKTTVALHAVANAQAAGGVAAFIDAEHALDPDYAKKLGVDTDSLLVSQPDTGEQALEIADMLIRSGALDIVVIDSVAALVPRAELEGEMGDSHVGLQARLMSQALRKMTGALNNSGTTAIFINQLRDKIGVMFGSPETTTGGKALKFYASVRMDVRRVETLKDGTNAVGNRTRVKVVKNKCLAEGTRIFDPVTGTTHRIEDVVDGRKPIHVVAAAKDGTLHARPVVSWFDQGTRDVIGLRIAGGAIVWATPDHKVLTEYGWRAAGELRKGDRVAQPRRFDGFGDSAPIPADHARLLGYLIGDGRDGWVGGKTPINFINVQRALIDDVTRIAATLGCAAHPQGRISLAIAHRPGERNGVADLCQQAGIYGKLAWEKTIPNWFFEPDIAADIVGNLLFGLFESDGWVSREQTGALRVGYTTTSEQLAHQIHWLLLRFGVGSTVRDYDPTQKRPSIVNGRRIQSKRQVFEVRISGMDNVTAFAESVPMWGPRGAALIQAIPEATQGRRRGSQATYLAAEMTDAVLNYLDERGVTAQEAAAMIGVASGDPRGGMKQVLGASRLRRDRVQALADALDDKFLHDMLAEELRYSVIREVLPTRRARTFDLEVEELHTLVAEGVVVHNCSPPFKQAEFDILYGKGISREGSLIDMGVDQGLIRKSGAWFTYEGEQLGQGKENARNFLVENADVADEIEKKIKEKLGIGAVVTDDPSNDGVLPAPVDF

14-3-3 protein gamma = 14-3-3 protein gamma (Homo sapiens, UniProt P61981); assay: modulators of 14-3-3 gamma client binding – dose response (AID 711); assay type: functional
14-3-3 protein gamma, sequence (P61981 whole entry): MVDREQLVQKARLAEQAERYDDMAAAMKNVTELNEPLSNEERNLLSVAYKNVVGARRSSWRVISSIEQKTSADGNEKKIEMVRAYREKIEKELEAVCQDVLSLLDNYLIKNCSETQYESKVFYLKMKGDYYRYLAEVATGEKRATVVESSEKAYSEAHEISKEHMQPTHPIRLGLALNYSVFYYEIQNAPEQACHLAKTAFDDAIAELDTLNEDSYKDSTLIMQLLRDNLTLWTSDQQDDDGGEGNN

[4] = biological target: T5, Replicative DNA helicase DnaB (Mycobacterium tuberculosis, UniProt P9WMR3); assay: DnaB intein splicing inhibitors, dose response, biochemical, cell-free fluorescence (AID 449749); assay type: functional
T5 sequence (P9WMR3 whole entry): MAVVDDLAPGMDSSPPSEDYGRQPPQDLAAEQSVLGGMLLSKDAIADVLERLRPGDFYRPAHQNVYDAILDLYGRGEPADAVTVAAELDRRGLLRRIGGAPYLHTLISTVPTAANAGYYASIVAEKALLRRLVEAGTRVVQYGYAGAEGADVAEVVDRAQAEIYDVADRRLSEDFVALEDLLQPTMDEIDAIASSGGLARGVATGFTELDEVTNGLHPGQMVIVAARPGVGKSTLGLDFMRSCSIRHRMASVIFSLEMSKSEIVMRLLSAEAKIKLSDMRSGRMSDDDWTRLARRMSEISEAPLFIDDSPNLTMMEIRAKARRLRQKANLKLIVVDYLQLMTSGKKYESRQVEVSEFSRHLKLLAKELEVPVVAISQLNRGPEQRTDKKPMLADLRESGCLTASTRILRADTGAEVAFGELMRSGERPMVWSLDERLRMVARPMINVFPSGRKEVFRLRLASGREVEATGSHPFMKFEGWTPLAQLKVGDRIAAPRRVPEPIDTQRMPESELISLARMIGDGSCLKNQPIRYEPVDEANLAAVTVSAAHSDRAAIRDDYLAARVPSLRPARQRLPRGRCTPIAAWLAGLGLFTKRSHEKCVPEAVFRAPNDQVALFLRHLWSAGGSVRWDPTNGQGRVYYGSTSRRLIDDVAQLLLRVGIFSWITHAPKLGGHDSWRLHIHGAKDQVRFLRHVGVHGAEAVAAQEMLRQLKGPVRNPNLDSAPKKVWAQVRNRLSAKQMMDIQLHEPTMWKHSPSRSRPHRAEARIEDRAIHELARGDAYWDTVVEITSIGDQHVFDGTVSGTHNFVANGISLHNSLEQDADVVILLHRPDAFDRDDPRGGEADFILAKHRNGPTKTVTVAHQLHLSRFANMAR

[5] = biological target: T6, RNA-binding protein pos-1 (Caenorhabditis elegans, UniProt G5EF15); assay: inhibitors of POS-1/mex-3 RNA binding, dose response, biochemical, fluorescence polarization (AID 1964);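 note: purified POS-1 fused to maltose binding protein made in E. coli; potency of compounds blocking POS-1 binding to fluorescent RNA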
T6 sequence (G5EF15 whole entry): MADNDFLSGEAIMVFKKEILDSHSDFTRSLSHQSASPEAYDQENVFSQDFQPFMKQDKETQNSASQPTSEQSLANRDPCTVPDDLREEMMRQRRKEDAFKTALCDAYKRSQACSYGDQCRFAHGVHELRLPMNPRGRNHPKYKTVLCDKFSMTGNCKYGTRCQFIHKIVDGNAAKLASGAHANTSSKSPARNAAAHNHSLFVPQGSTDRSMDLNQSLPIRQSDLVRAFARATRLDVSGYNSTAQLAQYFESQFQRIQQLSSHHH

Bcl-2-like protein 10 = biological target: T7, Bcl-2-like protein 10 (Homo sapiens, UniProt Q9HD36); assay: displacers of TR3 peptide from Bcl-B, primary screen, selectivity assay for Bfl-1 inhibitor project, biochemical, fluorescence polarization, FITC-TR3 peptide (AID 748);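 note: fluorescence polarization from a fluorescein-labelled TR3 peptide binding purified Bcl-B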
T7 sequence (Q9HD36 whole entry): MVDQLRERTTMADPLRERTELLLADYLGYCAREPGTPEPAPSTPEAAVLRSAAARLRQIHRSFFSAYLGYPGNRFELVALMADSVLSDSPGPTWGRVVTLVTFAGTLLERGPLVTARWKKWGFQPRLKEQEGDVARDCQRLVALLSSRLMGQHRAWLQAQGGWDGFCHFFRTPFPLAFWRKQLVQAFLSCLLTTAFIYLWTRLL

Fibrinogen beta chain [6] = biological target: T8, Fibrinogen beta chain (Homo sapiens, UniProt P02675); assay: Fluorescence polarization-based biochemical high throughput dose response assay to identify inhibitors that disrupt the binding of a cyclic peptide (Tn7) to the fibrin proteolytic product D-Dimer and fragment E complex [DD(E )].
T8 sequence (P02675 whole entry): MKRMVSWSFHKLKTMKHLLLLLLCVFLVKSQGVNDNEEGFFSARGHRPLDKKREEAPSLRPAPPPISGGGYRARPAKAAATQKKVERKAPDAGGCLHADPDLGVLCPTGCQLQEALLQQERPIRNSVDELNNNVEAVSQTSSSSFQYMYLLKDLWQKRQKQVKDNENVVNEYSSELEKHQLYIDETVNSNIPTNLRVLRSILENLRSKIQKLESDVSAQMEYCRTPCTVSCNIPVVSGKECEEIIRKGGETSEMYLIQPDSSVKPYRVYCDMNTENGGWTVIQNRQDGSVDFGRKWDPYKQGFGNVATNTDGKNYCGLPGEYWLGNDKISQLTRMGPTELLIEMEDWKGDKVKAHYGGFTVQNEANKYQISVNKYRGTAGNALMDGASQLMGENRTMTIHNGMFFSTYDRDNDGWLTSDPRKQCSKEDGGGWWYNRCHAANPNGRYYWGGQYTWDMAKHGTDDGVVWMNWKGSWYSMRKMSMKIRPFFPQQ

[7] = Artemis endonuclease inhibitor potency, dose response, biochemical, fluorescence intensity (AID 720701); assay type: functional;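 note: Artemis endonuclease enzyme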
Genome polyprotein = Genome polyprotein (dengue virus type 2, UniProt P29990); assay: Dengue-2 NS5 methyltransferase inhibitors, primary screen, biochemical, confirmation dose response (AID 588689); assay type: functional
Genome polyprotein, sequence (P29990 2492-3391 limits assumed): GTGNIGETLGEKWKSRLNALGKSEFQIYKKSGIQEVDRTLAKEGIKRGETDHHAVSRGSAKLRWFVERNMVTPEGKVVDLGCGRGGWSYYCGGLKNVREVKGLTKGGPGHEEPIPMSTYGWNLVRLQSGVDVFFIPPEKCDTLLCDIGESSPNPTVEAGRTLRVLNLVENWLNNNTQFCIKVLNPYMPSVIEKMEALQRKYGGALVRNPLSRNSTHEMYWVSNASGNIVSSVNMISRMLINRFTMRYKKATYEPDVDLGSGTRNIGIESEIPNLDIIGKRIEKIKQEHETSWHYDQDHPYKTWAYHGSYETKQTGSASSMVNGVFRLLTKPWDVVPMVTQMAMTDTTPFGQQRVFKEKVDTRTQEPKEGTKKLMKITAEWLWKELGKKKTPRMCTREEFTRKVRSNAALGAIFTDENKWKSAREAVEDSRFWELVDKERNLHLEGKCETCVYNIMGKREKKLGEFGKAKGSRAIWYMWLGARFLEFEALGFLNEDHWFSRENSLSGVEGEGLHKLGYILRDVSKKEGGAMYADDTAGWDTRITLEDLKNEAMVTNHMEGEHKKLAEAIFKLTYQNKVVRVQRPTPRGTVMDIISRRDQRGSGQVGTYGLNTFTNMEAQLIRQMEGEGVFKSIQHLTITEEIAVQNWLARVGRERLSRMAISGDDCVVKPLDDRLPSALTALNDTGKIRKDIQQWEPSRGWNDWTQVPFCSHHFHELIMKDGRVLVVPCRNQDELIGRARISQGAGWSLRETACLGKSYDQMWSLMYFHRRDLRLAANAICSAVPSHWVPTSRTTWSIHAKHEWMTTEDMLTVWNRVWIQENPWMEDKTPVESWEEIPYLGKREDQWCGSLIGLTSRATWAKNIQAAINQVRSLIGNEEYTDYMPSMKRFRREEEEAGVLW

[8] = biological target: Tyrosyl-DNA phosphodiesterase 2 (Homo sapiens, UniProt O95551); assay: human TDP2 enzyme inhibitors, dose response, biochemical, epi absorbance, IC50 (AID 743297)
Tyrosyl-DNA phosphodiesterase 2, sequence (O95551 whole entry, the tested form may be a part): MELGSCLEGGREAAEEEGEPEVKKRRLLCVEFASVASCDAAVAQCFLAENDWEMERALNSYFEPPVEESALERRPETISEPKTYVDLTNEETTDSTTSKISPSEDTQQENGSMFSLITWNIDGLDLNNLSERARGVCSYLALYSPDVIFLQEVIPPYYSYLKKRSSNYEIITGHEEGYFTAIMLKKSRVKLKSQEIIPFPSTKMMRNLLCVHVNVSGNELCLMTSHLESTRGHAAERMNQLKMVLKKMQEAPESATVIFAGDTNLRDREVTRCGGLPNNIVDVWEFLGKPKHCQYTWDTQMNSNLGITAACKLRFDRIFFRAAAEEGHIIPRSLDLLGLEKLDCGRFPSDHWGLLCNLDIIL

Fibrinogen beta chain [9] = biological target: T8, Fibrinogen beta chain; assay: Fluorescence polarization-based biochemical high throughput dose response assay to identify inhibitors that disrupt the binding of a cyclic peptide (Tn6) to the fibrin proteolytic product D-Dimer and fragment E complex [DD(E )].

5-hydroxytryptamine receptor 1A, sequence (P08908 whole entry): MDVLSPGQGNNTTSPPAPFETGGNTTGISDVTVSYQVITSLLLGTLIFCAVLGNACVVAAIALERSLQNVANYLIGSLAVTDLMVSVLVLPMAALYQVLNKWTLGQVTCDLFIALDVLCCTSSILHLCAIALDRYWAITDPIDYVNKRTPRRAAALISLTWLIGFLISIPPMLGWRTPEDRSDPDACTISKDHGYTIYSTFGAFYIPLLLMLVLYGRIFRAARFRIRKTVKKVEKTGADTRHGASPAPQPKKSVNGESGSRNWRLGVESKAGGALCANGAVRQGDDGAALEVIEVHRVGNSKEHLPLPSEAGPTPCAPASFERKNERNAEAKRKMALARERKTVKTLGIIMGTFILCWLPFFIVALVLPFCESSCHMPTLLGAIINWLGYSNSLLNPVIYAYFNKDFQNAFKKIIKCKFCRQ

## Cc1cccc(NC(=O)C2CCCN(C(=O)Nc3ccccc3)C2)c1C (stereo not drawn)
[1]
  EC50: > 50 µM (not active)

## Nc1cc(O)nc(SCC(=O)Nc2ccccc2-c2ccccc2)n1
[2]
  IC50: > 100 µM (active)

## COc1ccc(NC(=O)CSC2=NC(=O)CC(C)=N2)cc1
Leucine aminopeptidase
  IC50: 3.09 µM (active)
Cytochrome P450 2C9
  AC50: 25.1 µM (inconclusive)
Procathepsin L
  IC50: > 59.6 µM (not active)
Aspartyl aminopeptidase
  IC50: > 73.5 µM (not active)
Cytochrome P450 2C19
  AC50: 15.8 µM (inconclusive)

## COc1cc(NCCCC(C)N)c2ncccc2c1 (stereo not drawn)
[3]
  EC50: 34.3 µM (active)
Protein RecA
  EC50: 0.42 µM (active)
14-3-3 protein gamma
  IC50: > 50 µM (not active)
[4]
  AC50: 4.78 µM (active)
[5]
  EC50: 42.5 µM (active)
Bcl-2-like protein 10
  IC50: 8.47 µM (active)
Fibrinogen beta chain [6]
  IC50: > 83.3 µM (inactive)
[7]
  IC50: > 20 µM (inactive)
Genome polyprotein
  IC50: > 100 µM (active)
[8]
  IC50: 49.2 µM (inactive)
Fibrinogen beta chain [9]
  IC50: 54.4 µM (inactive)
